Experimental data reported in US6465613B1, “Hydrophilic somatostatin analogs” (Tulane University, priority 1998, dated 2002).
Positions of bridges follow the written chain, without caps; N, C: chain ends. Non-standard residues stand in square brackets, D forms with d. Residues, ends and D or L forms follow the SMILES beside them. Phe(4-NH2) = Nc1ccc(C[C@H](N)C(=O)O)cc1; Dab = NCC[C@H](N)C(=O)O

Legend:
[1] = biological target: T1, human SRIF receptor type 1 (Homo sapiens, UniProt P30872); assay: Radioligand binding assay, CHO-K1 membranes, 125I-Tyr11-SRIF; settings: CHO-K1 cell membranes, 0.05 nM 125I-Tyr11-SRIF
T1 construct: expressed in transfected cells; host or cells: CHO-K1 cells (membranes)
Description: (§1) For this study, cell membranes were obtained from homogenates of CHO-K1 cells (Chinese hamster ovary cells) ectopically expressing one of the five known somatostatin receptor subtypes (the cells were transfected with cDNA encoding a somatostatin receptor subtype, according to standard methods (see, e.g., Ausubel et al., Current Protocols in Molecular Biology, John Wiley & Sons, New York, N.Y., 1994)). […] The final assay volume was 0.3 ml. Incubations were terminated by rapid filtration through GF/C filters pre-soaked in 0.3% polyethylenimine using a 2 Brandel rapid filtration module (48 wells each). Each tube and filter was then washed 3 times with 5 ml aliquots of cold buffer.

[2] = biological target: T2, human SRIF receptor type 3 (Homo sapiens, UniProt P32745); assay: as above; settings: CHO-K1 cell membranes, 0.05 nM 125I-Tyr11-SRIF
T2 construct: expressed in transfected cells; host or cells: CHO-K1 cells (membranes)
Description: as §1

[3] = biological target: T3, human SRIF receptor type 5 (Homo sapiens, UniProt P35346); assay: as above; settings: CHO-K1 cell membranes, 0.05 nM 125I-Tyr11-SRIF
T3 construct: expressed in transfected cells; host or cells: CHO-K1 cells (membranes)
Description: as §1

[4] = biological target: T4, human SRIF receptor type 2 (Homo sapiens, UniProt P30874); assay: Radioligand binding assay, CHO-K1 membranes, 125I-MK-678; settings: CHO-K1 cell membranes
T4 construct: expressed in transfected cells; host or cells: CHO-K1 cells (membranes)
Description: as §1

[5] = biological target: T5, human SRIF receptor type 4 (Homo sapiens, UniProt P31391); assay: Radioligand binding assay, CHO-K1 membranes, 125I-Tyr11-SRIF; settings: CHO-K1 cell membranes, 0.05 nM 125I-Tyr11-SRIF
T5 construct: expressed in transfected cells; host or cells: CHO-K1 cells (membranes)
Description: as §1

T3 sequence (P35346 whole entry): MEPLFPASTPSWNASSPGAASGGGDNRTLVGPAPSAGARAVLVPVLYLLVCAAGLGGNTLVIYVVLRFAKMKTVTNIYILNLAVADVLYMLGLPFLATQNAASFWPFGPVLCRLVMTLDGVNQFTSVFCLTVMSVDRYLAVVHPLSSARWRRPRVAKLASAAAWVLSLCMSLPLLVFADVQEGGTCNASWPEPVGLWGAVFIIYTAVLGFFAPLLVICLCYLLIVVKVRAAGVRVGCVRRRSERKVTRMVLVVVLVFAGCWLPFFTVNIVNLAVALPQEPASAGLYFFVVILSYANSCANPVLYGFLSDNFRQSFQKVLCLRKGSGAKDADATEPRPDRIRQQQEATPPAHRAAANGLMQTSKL
T4 sequence (P30874 whole entry): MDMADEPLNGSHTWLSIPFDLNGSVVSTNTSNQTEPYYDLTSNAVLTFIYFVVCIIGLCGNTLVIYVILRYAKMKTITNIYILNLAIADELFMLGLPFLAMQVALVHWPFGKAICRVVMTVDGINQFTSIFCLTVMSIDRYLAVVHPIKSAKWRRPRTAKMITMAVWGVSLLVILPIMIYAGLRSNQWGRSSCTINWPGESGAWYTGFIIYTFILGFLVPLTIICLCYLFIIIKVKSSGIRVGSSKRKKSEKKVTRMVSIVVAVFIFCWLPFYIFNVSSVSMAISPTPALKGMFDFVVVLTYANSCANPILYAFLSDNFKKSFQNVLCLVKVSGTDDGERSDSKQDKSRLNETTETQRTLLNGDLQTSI
T2 sequence (P32745 whole entry): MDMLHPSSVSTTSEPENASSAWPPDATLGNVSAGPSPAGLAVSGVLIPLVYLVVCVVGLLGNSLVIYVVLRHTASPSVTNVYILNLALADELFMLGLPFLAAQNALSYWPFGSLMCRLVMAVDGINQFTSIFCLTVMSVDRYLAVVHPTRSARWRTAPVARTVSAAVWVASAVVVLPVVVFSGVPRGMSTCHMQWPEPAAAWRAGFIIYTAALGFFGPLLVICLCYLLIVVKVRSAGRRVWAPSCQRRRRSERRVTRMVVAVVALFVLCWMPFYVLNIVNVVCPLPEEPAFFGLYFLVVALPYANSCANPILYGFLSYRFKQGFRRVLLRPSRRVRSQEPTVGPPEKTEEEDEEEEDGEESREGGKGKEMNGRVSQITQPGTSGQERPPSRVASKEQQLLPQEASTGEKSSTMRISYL
T5 sequence (P31391 whole entry): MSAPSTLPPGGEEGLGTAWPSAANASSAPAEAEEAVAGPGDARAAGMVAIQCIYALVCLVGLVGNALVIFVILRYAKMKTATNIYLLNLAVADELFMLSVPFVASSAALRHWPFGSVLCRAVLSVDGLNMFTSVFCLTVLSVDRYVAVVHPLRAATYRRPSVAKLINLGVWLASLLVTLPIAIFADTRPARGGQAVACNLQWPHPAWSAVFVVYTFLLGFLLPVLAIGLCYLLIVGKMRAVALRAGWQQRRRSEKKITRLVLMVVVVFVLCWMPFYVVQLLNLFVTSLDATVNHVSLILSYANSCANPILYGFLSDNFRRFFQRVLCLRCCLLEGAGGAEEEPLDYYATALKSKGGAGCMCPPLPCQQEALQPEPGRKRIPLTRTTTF
T1 sequence (P30872 whole entry): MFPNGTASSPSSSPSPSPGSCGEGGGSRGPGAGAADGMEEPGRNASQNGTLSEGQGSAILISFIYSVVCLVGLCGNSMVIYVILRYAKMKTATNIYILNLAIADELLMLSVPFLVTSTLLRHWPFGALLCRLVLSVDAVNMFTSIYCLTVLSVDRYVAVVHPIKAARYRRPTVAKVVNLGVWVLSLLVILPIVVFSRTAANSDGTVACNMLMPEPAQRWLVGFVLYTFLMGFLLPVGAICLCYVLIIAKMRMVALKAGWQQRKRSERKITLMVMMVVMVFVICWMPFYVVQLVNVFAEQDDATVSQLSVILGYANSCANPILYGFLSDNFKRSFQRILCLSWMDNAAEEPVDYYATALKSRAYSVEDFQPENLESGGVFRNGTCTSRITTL

**Q.** What does the source list for `C[C@@H](O)[C@H](NC(=O)[C@@H]1CSSC[C@H](NC(=O)[C@@H](CCCCN)NC(=O)[C@@H](Cc2ccc(O)cc2)NC(=O)[C@@H](CCCCN)NC(=O)[C@@H](Cc2ccc(O)cc2)NC(=O)[C@H](N)CCCCN)C(=O)N[C@@H](Cc2ccccc2)C(=O)N[C@H](Cc2c[nH]c3ccccc23)C(=O)N[C@@H](CCCCN)C(=O)N[C@@H]([C@@H](C)O)C(=O)N1)C(N)=O` [JF-06-44, D-Lys-D-Tyr-D-Lys-D-Tyr-D-Lys-c[Cys-Phe-D-Trp-Lys-Thr-Cys]-Thr-NH2] (H-[dK][dY][dK][dY][dK]CF[dW]KTCT-NH2; disulfide 6-11)?
**A.** Kd [1]: 3.8 nM; Kd [2]: 0.91 nM; Kd [3]: 17 nM; Kd [4]: 0.87 nM

**Q.** Which Kd [1] does the source give for `C[C@@H](O)[C@H](NC(=O)[C@@H]1CSSC[C@H](NC(=O)[C@H](CCCCN)NC(=O)[C@H](Cc2ccc(N)cc2)NC(=O)[C@H](CCCCN)NC(=O)[C@H](Cc2ccc(N)cc2)NC(=O)[C@H](N)CCCCN)C(=O)N[C@@H](Cc2ccccc2)C(=O)N[C@H](Cc2c[nH]c3ccccc23)C(=O)N[C@@H](CCCCN)C(=O)N[C@@H]([C@@H](C)O)C(=O)N1)C(N)=O` [JF-06-31, D-Lys-Pap-Lys-Pap-Lys-c[Cys-Phe-D-Trp-Lys-Thr-Cys]-Thr-NH2] (H-[dK][Phe(4-NH2)]K[Phe(4-NH2)]KCF[dW]KTCT-NH2; disulfide 6-11) here?
**A.** 1.5 nM

**Q.** What about the Kd [2] of the same compound?
**A.** 20.8 nM

**Q.** And the Kd [5]?
**A.** > 1000 nM

**Q.** And the Kd [3]?
**A.** 3 nM

**Q.** And the Kd [4]?
**A.** 0.09 nM

**Q.** How did the Kd [1] turn out when `C[C@@H](O)[C@H](NC(=O)[C@@H]1CSSC[C@H](NC(=O)[C@@H](CCCCN)NC(=O)[C@@H](Cc2ccc(O)cc2)NC(=O)[C@H](N)CCCCN)C(=O)N[C@@H](Cc2ccccc2)C(=O)N[C@H](Cc2c[nH]c3ccccc23)C(=O)N[C@@H](CCCCN)C(=O)N[C@@H]([C@@H](C)O)C(=O)N1)C(N)=O` [JF-06-50, D-Lys-D-Tyr-D-Lys-c[Cys-Phe-D-Trp-Lys-Thr-Cys]-Thr-NH2] (H-[dK][dY][dK]CF[dW]KTCT-NH2; disulfide 4-9) was run?
**A.** 20.9 nM

**Q.** What about the Kd [2] of the same compound?
**A.** 4.87 nM

**Q.** What about the Kd [5] of the same compound?
**A.** > 1000 nM

**Q.** And the Kd [3]?
**A.** 20 nM

**Q.** What about the Kd [4] of the same compound?
**A.** 1.96 nM

**Q.** Which Kd [1] does the source give for `C[C@@H](O)[C@H](NC(=O)[C@@H]1CSSC[C@H](NC(=O)[C@H](CCCNC(=N)N)NC(=O)[C@H](Cc2ccc(O)cc2)NC(=O)[C@H](CCCNC(=N)N)NC(=O)[C@H](Cc2ccc(O)cc2)NC(=O)[C@H](N)CCCNC(=N)N)C(=O)N[C@@H](Cc2ccccc2)C(=O)N[C@H](Cc2c[nH]c3ccccc23)C(=O)N[C@@H](CCCCN)C(=O)N[C@@H]([C@@H](C)O)C(=O)N1)C(N)=O` [JF-05-81, D-Arg-Tyr-Arg-Tyr-Arg-c[Cys-Phe-D-Trp-Lys-Thr-Cys]-Thr-NH2] (H-[dR]YRYRCF[dW]KTCT-NH2; disulfide 6-11) here?
**A.** 12.1 nM

**Q.** And the Kd [2]?
**A.** 14.6 nM

**Q.** And the Kd [5]?
**A.** > 1000 nM

**Q.** And the Kd [3]?
**A.** 3.3 nM

**Q.** And the Kd [4]?
**A.** 0.28 nM

**Q.** With `C[C@@H](O)[C@H](NC(=O)[C@@H]1CSSC[C@H](NC(=O)[C@H](CCCCN)NC(=O)[C@H](Cc2ccc(O)cc2)NC(=O)[C@@H](CCCCN)NC(=O)[C@@H](Cc2ccc(O)cc2)NC(=O)[C@H](CCCCN)NC(=O)[C@H](Cc2ccc(O)cc2)NC(=O)[C@H](N)CCCCN)C(=O)N[C@@H](Cc2ccccc2)C(=O)N[C@H](Cc2c[nH]c3ccccc23)C(=O)N[C@@H](CCCCN)C(=O)N[C@@H]([C@@H](C)O)C(=O)N1)C(N)=O` [JF-05-85, D-Lys-Tyr-Lys-D-Tyr-D-Lys-Tyr-Lys-c[Cys-Phe-D-Trp-Lys-Thr-Cys]-Thr-NH2] (H-[dK]YK[dY][dK]YKCF[dW]KTCT-NH2; disulfide 8-13) as the compound, how does the Kd [1] read?
**A.** 16.9 nM

**Q.** What about the Kd [2] of the same compound?
**A.** 15.1 nM

**Q.** And the Kd [5]?
**A.** 369 nM

**Q.** And the Kd [3]?
**A.** 17.3 nM

**Q.** What about the Kd [4] of the same compound?
**A.** 0.38 nM

**Q.** What does the source list for `C[C@@H](O)[C@H](NC(=O)[C@@H]1CSSC[C@H](NC(=O)[C@H](CCCCN)NC(=O)[C@H](Cc2ccc(O)cc2)NC(=O)[C@H](CCCCN)NC(=O)[C@H](Cc2ccc(O)cc2)NC(=O)[C@H](N)CCCCN)C(=O)N[C@@H](Cc2ccccc2)C(=O)N[C@H](Cc2c[nH]c3ccccc23)C(=O)N[C@@H](CCCCN)C(=O)N[C@@H]([C@@H](C)O)C(=O)N1)C(N)=O` [JF-05-59, D-Lys-Tyr-Lys-Tyr-Lys-c[Cys-Phe-D-Trp-Lys-Thr-Cys]-Thr-NH2] (H-[dK]YKYKCF[dW]KTCT-NH2; disulfide 6-11)?
**A.** Kd [1]: 4.1 nM; Kd [2]: 6.4 nM; Kd [5]: 515 nM; Kd [3]: 13.4 nM; Kd [4]: 0.36 nM

**Q.** How did the Kd [1] turn out when `C[C@@H](O)[C@H](NC(=O)[C@@H]1CSSC[C@H](NC(=O)[C@H](CCN)NC(=O)[C@H](Cc2ccc(O)cc2)NC(=O)[C@H](CCN)NC(=O)[C@H](Cc2ccc(O)cc2)NC(=O)[C@@H](N)CCN)C(=O)N[C@@H](Cc2ccccc2)C(=O)N[C@H](Cc2c[nH]c3ccccc23)C(=O)N[C@@H](CCCCN)C(=O)N[C@@H]([C@@H](C)O)C(=O)N1)C(N)=O` [JF-06-45, Dab-Tyr-Dab-Tyr-Dab-c[Cys-Phe-D-Trp-Lys-Thr-Cys]-Thr-NH2] (H-[Dab]Y[Dab]Y[Dab]CF[dW]KTCT-NH2; disulfide 6-11) was run?
**A.** 6.2 nM

**Q.** And the Kd [2]?
**A.** 22.7 nM

**Q.** What about the Kd [5] of the same compound?
**A.** > 1000 nM

**Q.** And the Kd [3]?
**A.** 115 nM

**Q.** What about the Kd [4] of the same compound?
**A.** 1.37 nM
